Measurements from US20250154169A1, “COMPOUNDS AND METHODS FOR MODULATING SPLICING” (REMIX THERAPEUTICS INC., priority 2021, published 2025).
Where a name gives a salt, the structure may show the parent alone. Read-outs that look alike come from different tables or passages of the source.

Experiments:
Format in all cases: cell-based, human
MYB mRNA = assay: Splicing RT-qPCR assay, MYB canonical (CJ) and alternative (AJ) junction mRNA; conditions: Homo sapiens
In short: (§1)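 Compound-induced exon inclusion is tracked as an increase in AJ transcript alongside the CJ transcript. Cells (A673 normalized to PPIA; K562 to GAPDH or GUSB) are dosed 24 h with a serial dilution topping at 10 uM, ≤0.25% DMSO, then lysed and analysed by RT-qPCR in at least duplicate.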

Target C mRNA = assay: Splicing RT-qPCR gene panel, Target C canonical junction (CJ) mRNA; conditions: Homo sapiens, Tables 4A/4B, read-out: Target C (IC50, decrease in CJ mRNA, gene panel)
In short: (§2)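 Read-out: RT-qPCR of the canonical exon-exon junction transcript, ΔCt vs housekeeping gene, normalized to DMSO, RQ = 2^(−ΔΔCt), converted to percentage response. Cells, A673 or K562, were dosed 24 h at 37 °C across 11 3-fold dilutions from 10 uM.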

HTT mRNA [1] = assay: Splicing RT-qPCR gene panel, HTT canonical junction (CJ) mRNA; conditions: Homo sapiens, Tables 4A/4B, read-out: HTT (IC50, decrease in CJ mRNA, gene panel)
In short: as §2

HTT mRNA [2] = assay: Splicing RT-qPCR assay, HTT canonical (CJ) and alternative (AJ) junction mRNA; conditions: Homo sapiens
In short: as §1

SMN2 mRNA = assay: Splicing RT-qPCR gene panel, SMN2 canonical junction (CJ) mRNA; conditions: Homo sapiens, Tables 4A/4B, read-out: SMN2 (IC50, decrease in CJ mRNA, gene panel)
In short: as §2

[3] = 24 h, A673 or K562 cells, 24 hours compound treatment, RT-qPCR, read-out: MYB AJ (AC50, increase in alternative junction mRNA)
[4] = 24 h, A673 or K562 cells, 24 hours compound treatment, RT-qPCR, read-out: MYB CJ (IC50, decrease in canonical junction mRNA)
[5] = Tables 4A/4B, canonical junction qPCR panel, read-out: MYB (IC50, decrease in CJ mRNA, gene panel)
[6] = 24 h, A673 or K562 cells, 24 hours compound treatment, read-out: HTT CJ (IC50, decrease in canonical junction mRNA)
[7] = A673 or K562 cells, 24 hours compound treatment, read-out: HTT AJ (AC50, increase in alternative junction mRNA)

Structure (SMILES)	IC50 (MYB mRNA; [4])	IC50 (MYB mRNA; [5])	IC50 (Target C mRNA)	IC50 (HTT mRNA [1])	IC50 (HTT mRNA [2]; [6])	IC50 (SMN2 mRNA)	IC50 (MYB mRNA; Table 3B, canonical junction mRNA, RT-qPCR, read-out: MYB CJ (IC50, decrease in CJ mRNA))	IC50 (HTT mRNA [2]; Table 3B, canonical junction mRNA, read-out: HTT CJ (IC50, decrease in CJ mRNA))	AC50 (MYB mRNA; [3])	AC50 (HTT mRNA [2]; [7])	AC50 (MYB mRNA; Table 3B, alternative junction mRNA, RT-qPCR, read-out: MYB AJ (AC50, increase in AJ mRNA))	AC50 (HTT mRNA [2]; Table 3B, alternative junction mRNA, read-out: HTT AJ (AC50, increase in AJ mRNA))
Cc1cn2cc(NC(=O)c3ccc(N4CCNCC4)c4cn(C5COC5)nc34)cc(F)c2n1 [Compound 295, N-{8-fluoro-2-methylimidazo[1,2-a]pyridin-6-yl}-2-(oxetan-3-yl)-4-(piperazin-1-yl)indazole-7-carboxamide]	0.1 to 1 µM	0.1 to 1 µM	> 10 µM	> 10 µM	> 10 µM	< 0.1 µM			0.1 to 1 µM	1 to 10 µM		
Cc1cn2cc(NC(=O)c3cc(F)c(N4CCNCC4)c4cn(C)nc34)cc(F)c2n1 [Compound 303, 5-fluoro-N-{8-fluoro-2-methylimidazo[1,2-a]pyridin-6-yl}-2-methyl-4-(piperazin-1-yl)indazole-7-carboxamide]	0.1 to 1 µM	0.1 to 1 µM	> 10 µM	1 to 10 µM	1 to 10 µM	< 0.1 µM			0.1 to 1 µM	1 to 10 µM		
Cc1cn2cc(NC(=O)c3ccc(N4CC[C@@H](NC5CC5)C4)c4cn(C)nc34)cc(F)c2n1 [Compound 371, 4-[(3R)-3-(cyclopropylamino)pyrrolidin-1-yl]-N-{8-fluoro-2-methylimidazo[1,2-a]pyridin-6-yl}-2-methylindazole-7-carboxamide]	< 0.1 µM	< 0.1 µM	> 10 µM	> 10 µM	0.1 to 1 µM	< 0.1 µM			< 0.1 µM	0.1 to 1 µM		
CCn1cc2c(N3CCN(C)CC3)ccc(C(=O)Nc3cc(F)c4nc(CO)oc4c3)c2n1 [Compound 450, 2-ethyl-N-[4-fluoro-2-(hydroxymethyl)-1,3-benzoxazol-6-yl]-4-(4-methylpiperazin-1-yl) indazole-7-carboxamide]	> 10 µM	< 0.1 µM	1 to 10 µM	0.1 to 1 µM	> 10 µM	< 0.1 µM			> 10 µM	> 10 µM		
Cn1cc2ccc(NC(=O)c3ccc(N4CCNCC4)c4cn(C)nc34)cc2n1 [Compound 230]	> 10 µM	> 10 µM	> 10 µM	> 10 µM	> 10 µM	> 10 µM			> 10 µM	> 10 µM		
Cc1cn2cc(NC(=O)c3ccc(N4CCNCC4)c4cn(C)nc34)[nH]c(=O)c2n1 [Compound 342, N-{8-hydroxy-2-methylimidazo[1,2-a]pyrazin-6-yl}-2-methyl-4-(piperazin-1-yl) indazole-7-carboxamide]	1 to 10 µM	1 to 10 µM	> 10 µM	> 10 µM	> 10 µM	> 10 µM			> 10 µM	> 10 µM		
Cc1cn2cc(NC(=O)c3ccc(N4CCC5(CCN5)C4)c4cn(C)nc34)cc(F)c2n1 (centres unmarked) [Compound 299, 4-{1,6-diazaspiro[3.4]octan-6-yl}-N-{8-fluoro-2-methylimidazo[1,2-a]pyridin-6-yl}-2-methylindazole-7-carboxamide]	0.1 to 1 µM	0.1 to 1 µM	> 10 µM	> 10 µM	> 10 µM	< 0.1 µM			0.1 to 1 µM	> 10 µM		
Cc1cn2cc(NC(=O)c3ccc(N4CCNCC4)c4cc(C)nn34)cc(F)c2n1 [Compound 940]		< 0.1 µM	0.1 to 1 µM	< 0.1 µM		< 0.1 µM	< 0.1 µM	< 0.1 µM			< 0.1 µM	0.1 to 1 µM
Cc1cn2cc(NC(=O)c3ccc(N4CCNCC4)c4cn(C5CCOCC5)nc34)cc(F)c2n1 [Compound 304, N-{8-fluoro-2-methylimidazo[1,2-a]pyridin-6-yl}-2-(oxan-4-yl)-4-(piperazin-1-yl) indazole-7-carboxamide trifluoroacetic acid salt]	0.1 to 1 µM	0.1 to 1 µM	> 10 µM	1 to 10 µM	1 to 10 µM	< 0.1 µM			0.1 to 1 µM	> 10 µM		
Cc1cn2cc(NC(=O)c3ccc(N4CCN[C@@H](C)C4)c4cn(C)nc34)cc(F)c2n1 (single isomer, unassigned) [Compound 352]	< 0.1 µM	< 0.1 µM	1 to 10 µM	0.1 to 1 µM	0.1 to 1 µM	< 0.1 µM			< 0.1 µM	0.1 to 1 µM		
Cc1cn2cc(NC(=O)c3ccc(N4CCNCC4)c4cn(C5CC(O)C5)nc34)cc(F)c2n1 (centres unmarked) [Compound 355, N-{8-fluoro-2-methylimidazo[1,2-a]pyridin-6-yl}-2-(3-hydroxycyclobutyl)-4-(piperazin-1-yl)indazole-7-carboxamide]	< 0.1 µM	< 0.1 µM	> 10 µM	> 10 µM	> 10 µM	< 0.1 µM			< 0.1 µM	1 to 10 µM		

Now from value to compound, other results behind:

IC50 (MYB mRNA; [4])	IC50 (MYB mRNA; [5])	IC50 (Target C mRNA)	IC50 (HTT mRNA [1])	IC50 (HTT mRNA [2]; [6])	IC50 (SMN2 mRNA)	IC50 (MYB mRNA; Table 3B, canonical junction mRNA, RT-qPCR, read-out: MYB CJ (IC50, decrease in CJ mRNA))	IC50 (HTT mRNA [2]; Table 3B, canonical junction mRNA, read-out: HTT CJ (IC50, decrease in CJ mRNA))	Structure (SMILES)	AC50 (MYB mRNA; [3])	AC50 (HTT mRNA [2]; [7])	AC50 (MYB mRNA; Table 3B, alternative junction mRNA, RT-qPCR, read-out: MYB AJ (AC50, increase in AJ mRNA))	AC50 (HTT mRNA [2]; Table 3B, alternative junction mRNA, read-out: HTT AJ (AC50, increase in AJ mRNA))
0.1 to 1 µM	< 0.1 µM	> 10 µM	1 to 10 µM	1 to 10 µM	< 0.1 µM			CCn1cc2c(N3CCN(C)CC3)ccc(C(=O)Nc3cc(F)c4nc(C)cn4c3)c2n1 [Compound 378, 2-ethyl-N-{8-fluoro-2-methylimidazo[1,2-a]pyridin-6-yl}-4-(4-methylpiperazin-1-yl) indazole-7-carboxamide]	0.1 to 1 µM	1 to 10 µM		
0.1 to 1 µM	0.1 to 1 µM	> 10 µM	1 to 10 µM	1 to 10 µM	< 0.1 µM			Cc1nc2c(F)cc(NC(=O)c3ccc(N4CCNCC4)c4cn(C)nc34)cc2s1 [Compound 235]	0.1 to 1 µM	1 to 10 µM		
0.1 to 1 µM	0.1 to 1 µM	> 10 µM	1 to 10 µM	1 to 10 µM	< 0.1 µM			COC(C)Cn1cc2c(N3CCNCC3)ccc(C(=O)Nc3cc(F)c4nc(C)cn4c3)c2n1 (centres unmarked) [Compound 367, N-{8-fluoro-2-methylimidazo[1,2-a]pyridin-6-yl}-2-(2-methoxypropyl)-4-(piperazin-1-yl) indazole-7-carboxamide; trifluoroacetic acid]	0.1 to 1 µM	1 to 10 µM		
0.1 to 1 µM	0.1 to 1 µM	> 10 µM	> 10 µM	> 10 µM	< 0.1 µM			Cc1cn2cc(NC(=O)c3ccc(N4C[C@@H](C)N[C@@H](C)C4)c4cn(C)nc34)nc(C)c2n1 [Compound 334, N-{2,8-dimethylimidazo[1,2-a]pyrazin-6-yl}-4-[(3R,5S)-3,5-dimethylpiperazin-1-yl]-2-methylindazole-7-carboxamide]	0.1 to 1 µM	> 10 µM		
< 0.1 µM	< 0.1 µM	0.1 to 1 µM	0.1 to 1 µM	0.1 to 1 µM	< 0.1 µM			Cc1cn2cc(NC(=O)c3ccc(N4CCC(C)(N)CC4)c4cn(C)nc34)cc(F)c2n1 [Compound 336, 4-(4-amino-4-methylpiperidin-1-yl)-N-{8-fluoro-2-methylimidazo[1,2-a]pyridin-6-yl}-2-methylindazole-7-carboxamide]	< 0.1 µM	0.1 to 1 µM		
